Source: patent publication US6864068B2, “Antifungal proteins” (Syngenta Limited, priority 1995, dated 2005)

System: F culmorum
Assay: Specific antifungal activity of Rs-AFP2 isoforms in SMF− and SMF+ media
Assay type: cell-based
Design: IC50 SMF− / IC50 SMF+: unit not given here
Settings: for RELATIVE SPECIFIC ACTIVITY (%) IN MEDIUM SMF+ / RELATIVE SPECIFIC ACTIVITY (%) IN MEDIUM SMF−: 1/IC50 of mutant divided by that of yRs-AFP2 x 100, 48 hour incubation, preliminary tests; for RELATIVE SPECIFIC ACTIVITY (%) IN MEDIUM SMF+: SMF with 1 mM CaCl2 and 50 mM KCl; for RELATIVE SPECIFIC ACTIVITY (%) IN MEDIUM SMF−: low ionic strength medium; for IC50 SMF+ / IC50 SMF−: 72 hours growth, triplicate; for IC50 SMF+: high salt medium (1 mM CaCl2, 50 mM KCl); for IC50 SMF− / effect of substitution on antifungal activity in SMF−, in words: low salt medium; for effect of substitution on antifungal activity in SMF+, in words / effect of substitution on antifungal activity in SMF−, in words: Table 2 tests; for effect of substitution on antifungal activity in SMF+, in words: high salt medium; for relative specific antifungal activity (1/IC50), FIG. 6, in words: medium SMF+, Rs-AFP2 set at 100
Method: For each isoform, two independent purifications were carried out and the antifungal activity was determined in duplicate using F culmorum as a test fungus in two different media: a low ionic strength medium called SMF-(Terras et al, 1992, J Biol Chem, 267:15301-15309) and the same medium supplemented with 1 mM CaCl2 and 50 mM KCl called SMF+. The presence of salts in the test medium, especially salts with divalent cations, reduces the specific activity of Rs-AFP2. Seed-purified as well as yeast-expressed wild type Rs-AFP2 served as a control in the assays.
The relative specific activity is expressed as the specific activity of the mutant divided by the specific activity of yRs-AFP2 and multiplied by 100. […] The specific activity was measured in medium SMF−and SMF+.
Deviations are given as standard error of the mean (sem) based on the triplicate experiments. In SMF−, the medium without added salts, most of the derivatives show no decrease or only a minor decrease in antifungal activity, while in SMF+, the medium with added salts, there is a significant decrease in antifungal activity for several Rs-AFP2 isoforms.

Row | Substance | RELATIVE SPECIFIC ACTIVITY (%) IN MEDIUM SMF+ | RELATIVE SPECIFIC ACTIVITY (%) IN MEDIUM SMF− | IC50 SMF+ | IC50 SMF− | antifungal activity compared with yRs-AFP2, in words (Table 1 tests, SMF− and SMF+) | effect of substitution on antifungal activity in SMF+, in words | effect of substitution on antifungal activity in SMF−, in words | relative specific antifungal activity (1/IC50), FIG. 6, in words | antifungal activity compared with yRs-AFP2 in high salt (SMF+), in words (Table 1 tests) | antifungal activity compared with yRs-AFP2 in low salt (SMF−), in words (Table 1 tests)
1 | yRs-AFP2/F49R (QKLCQRPSGTWSGVCGNNNACKNQCIRLEKARHGSCNYVFPAHKCICYRPC; listed as Raphanus sativus) | 22% | 18% | 23.0 | 22.0 |  |  |  |  |  | 
2 | yRs-AFP2/I46R (QKLCQRPSGTWSGVCGNNNACKNQCIRLEKARHGSCNYVFPAHKCRCYFPC; listed as Raphanus sativus) |  | 22% | >40 | 12.0 |  |  |  |  |  | 
3 | yRs-AFP2/W11S (QKLCQRPSGTSSGVCGNNNACKNQCIRLEKARHGSCNYVFPAHKCICYFPC; listed as Raphanus sativus) |  |  | >100 | 16.0 |  |  |  |  |  | 
4 | yRs-AFP2/K44Q (QKLCQRPSGTWSGVCGNNNACKNQCIRLEKARHGSCNYVFPAHQCICYFPC; listed as Raphanus sativus) | 114% | 100% |  |  |  |  |  |  |  | 
5 | yRs-AFP2/H33A (QKLCQRPSGTWSGVCGNNNACKNQCIRLEKARAGSCNYVFPAHKCICYFPC; listed as Raphanus sativus) |  |  | >100 | 32.0 |  |  |  |  |  | 
6 | yRs-AFP2/A42R (QKLCQRPSGTWSGVCGNNNACKNQCIRLEKARHGSCNYVFPRHKCICYFPC; listed as Raphanus sativus) | 26% | 44% | 18.0 | 4.2 |  |  |  |  |  | 
7 | yRs-AFP2/Q5M: yeast-expressed Rs-AFP2 isoform, position 5 glutamine to methionine (QKLCMRPSGTWSGVCGNNNACKNQCIRLEKARHGSCNYVFPAHKCICYFPC; listed as Raphanus sativus) | 100% | 100% | 5.4 | 4.1 | maintain their antifungal activity | increased antifungal activity | little effect on the antifungal activity | enhanced activity |  | 
8 | yRs-AFP2/I26R (QKLCQRPSGTWSGVCGNNNACKNQCRRLEKARHGSCNYVFPAHKCICYFPC; listed as Raphanus sativus) | 82% | 76% | 9.6 | 7.2 |  |  |  |  |  | 
9 | yRs-AFP2/N37R (QKLCQRPSGTWSGVCGNNNACKNQCIRLEKARHGSCRYVFPAHKCICYFPC; listed as Raphanus sativus) | 80% | 100% | 7.0 | 2.8 |  |  |  |  |  | 
10 | yRs-AFP2/S12R (QKLCQRPSGTWRGVCGNNNACKNQCIRLEKARHGSCNYVFPAHKCICYFPC; listed as Raphanus sativus) | 31% | 67% | 20.0 | 3.5 |  |  |  |  |  | 
11 | yRs-AFP2/G16M (QKLCQRPSGTWSGVCMNNNACKNQCIRLEKARHGSCNYVFPAHKCICYFPC; listed as Raphanus sativus) | 114% | 151% | 5.0 | 2.2 |  | increased antifungal activity | little effect on the antifungal activity | enhanced activity | not so significantly different in high salt | increased activity in low salt
12 | yRs-AFP2/P7-: yeast-expressed Rs-AFP2 isoform with proline deletion at position 7 (QKLCQRSGTWSGVCGNNNACKNQCIRLEKARHGSCNYVFPAHKCICYFPC; listed as Raphanus sativus) | 17% | 8% |  |  |  |  |  |  |  | 
13 | yRs-AFP2/P7R: yeast-expressed Rs-AFP2 isoform, P7 replaced by arginine (QKLCQRRSGTWSGVCGNNNACKNQCIRLEKARHGSCNYVFPAHKCICYFPC; listed as Raphanus sativus) | 84% | 33% | 8.8 | 6.8 |  |  |  |  |  | 
14 | yRs-AFP2/F40M (QKLCQRPSGTWSGVCGNNNACKNQCIRLEKARHGSCNYVMPAHKCICYFPC; listed as Raphanus sativus) | 23% | 30% | 54.0 | 16.0 |  |  |  |  |  | 
15 | yRs-AFP2/Y38G (QKLCQRPSGTWSGVCGNNNACKNQCIRLEKARHGSCNGVFPAHKCICYFPC; listed as Raphanus sativus) | <4% | 30% | >200 | 42.0 |  |  |  |  |  | 
16 | yRs-AFP2/L28R (QKLCQRPSGTWSGVCGNNNACKNQCIRREKARHGSCNYVFPAHKCICYFPC; listed as Raphanus sativus) |  | 39% | >100 | 6.4 |  |  |  |  |  | 
17 | yRs-AFP2/T10G (QKLCQRPSGGWSGVCGNNNACKNQCIRLEKARHGSCNYVFPAHKCICYFPC; listed as Raphanus sativus) | <16% | 30% | >100 | 11.0 |  |  |  |  |  | 
18 | yRs-AFP2/A31W (QKLCQRPSGTWSGVCGNNNACKNQCIRLEKWRHGSCNYVFPAHKCICYFPC; listed as Raphanus sativus) | <5% | 15% | >100 | 30.0 |  |  |  |  |  | 
